Holding throughout (experiment): Post-emergence efficacy, Method A
Holding throughout (type): in vivo

The subject of test [1] is Chenopodium album (CHEAL). The note with it: read-out: Control of weed species after post-emergence application, CHEAL.
For test [2], the system named is Amaranthus palmeri (AMAPA). As to conditions: read-out: Control of weed species after post-emergence application, AMAPA.
The test system of test [3] is Ipomoea hederacea (IPOHE). The note with it: read-out: Control of weed species after post-emergence application, IPOHE.
Test [4] concerns Echinochloa crus-galli (ECHCG). The note with it: read-out: Control of weed species after post-emergence application, ECHCG.
The next test concerns Eleusine indica (ELEIN). As to conditions: read-out: Control of weed species after post-emergence application, ELEIN.
For the next test, the system named is Lolium perenne (LOLPE). The note with it: read-out: Control of weed species after post-emergence application, LOLPE.
For the next test, the system named is Setaria faberi (SETFA). As to conditions: read-out: Control of weed species after post-emergence application, SETFA.
The test system of test [5] is Digitaria sanguinalis (DIGSA). The note with it: read-out: Control of weed species after post-emergence application, DIGSA.
Test [6] deals with Euphorbia heterophylla (EPHHL). The note with it: read-out: Control of weed species after post-emergence application, EPHHL.
The mark [7] stands for this setting: 500 g/Ha, 100=total damage to plant, 0=no damage, evaluated after 7 and 14 days.
Setting [8] is: 125 g/Ha, 100=total damage to plant, 0=no damage, evaluated after 7 and 14 days.

Counter-ions that a name gives are not always drawn. Like-named read-outs stand apart in the source and are kept apart here.

With `Cn1nnc(-c2cc[n+](CC(=O)O)cc2)n1` [Compound A34], the pest or weed control at 500 g/ha in test [1] (setting [7]) was 0%; in test [2] (setting [7]), 70%; in test [3] (setting [7]) it was 0%; in test [4] (setting [7]), 0%; with Eleusine indica (ELEIN) (setting [7]) it was 0%; in the test with Lolium perenne (LOLPE) (setting [7]) it was 0%. The pest or weed control at 500 g/ha (in the test with Setaria faberi (SETFA) (setting [7]); in test [5] (setting [7]); in [6] (setting [7])) was 0% each time.
For the compound `Cc1nnc(-c2cc[n+](CCCS(=O)(=O)[O-])cc2)o1` [Compound A36], the pest or weed control at 500 g/ha in test [1] (setting [7]) came out at 60%; in [2] (setting [7]) it was 70%; in test [3] (setting [7]), 30%; in test [4] (setting [7]), 10%; in the test with Eleusine indica (ELEIN) (setting [7]), 10%; with Lolium perenne (LOLPE) (setting [7]), 0%. For the same compound, the pest or weed control at 500 g/ha with Setaria faberi (SETFA) (setting [7]) worked out at 10%; in [5] (setting [7]), 30%; in [6] (setting [7]), 60%.
With `O=S(=O)([O-])CC[n+]1ccc(-c2nc(C(F)(F)F)co2)cc1` [Compound A46], the pest or weed control at 500 g/ha came to 0% in test [1] (setting [7]); 30% in test [2] (setting [7]); 0% in test [3] (setting [7]); 0% in [4] (setting [7]); 0% in the test on Eleusine indica (ELEIN) (setting [7]); 0% with Lolium perenne (LOLPE) (setting [7]). Also, the pest or weed control at 500 g/ha (with Setaria faberi (SETFA) (setting [7]); in test [5] (setting [7]); in test [6] (setting [7])) was 0% throughout.
Consider `CCOP(C)(=O)C[n+]1ccc(-c2ncns2)cc1` (stereo not drawn) [Compound A47, 5-[1-[[ethoxy(methyl)phosphoryl]methyl]pyridin-1-ium-4-yl]-1,2,4-thiadiazole trifluoromethanesulfonate], for which the pest or weed control at 500 g/ha is 60% in [1]; 60% in test [2]; 10% in [3]; 10% in [4]; 10% with Eleusine indica (ELEIN); 0% with Lolium perenne (LOLPE). In addition, the pest or weed control at 500 g/ha (in the test with Setaria faberi (SETFA); in test [5]; in test [6]) was 10% each time.
Regarding `O=C(O)CC[n+]1ccc(-c2nc(C(F)(F)F)ns2)cc1` [Compound A48, 3-[4-[3-(trifluoromethyl)-1,2,4-thiadiazol-5-yl]pyridin-1-ium-1-yl]propanoic acid acetate], the pest or weed control at 125 g/ha in [1] (setting [8]) was 10%; in test [2] (setting [8]), 90%; in test [3] (setting [8]) it was 0%; in [4] (setting [8]), 0%; in the test on Eleusine indica (ELEIN) (setting [8]) it was 0%; with Lolium perenne (LOLPE) (setting [8]), 10%. The pest or weed control at 125 g/ha with Setaria faberi (SETFA) (setting [8]) was 20%; in test [5] (setting [8]) it was 0%; in test [6] (setting [8]) it was 30%.
Take `O=C(O)C[n+]1ccc(-c2csnn2)cc1` [Compound A53]: the pest or weed control at 500 g/ha stood at 10% in test [1] (setting [7]); 10% in test [2] (setting [7]); 20% in [3] (setting [7]); 10% in test [4] (setting [7]); 0% with Eleusine indica (ELEIN) (setting [7]); 0% in the test with Lolium perenne (LOLPE) (setting [7]). In addition, the values for the pest or weed control at 500 g/ha (in the test with Setaria faberi (SETFA) (setting [7]); in [5] (setting [7]); in test [6] (setting [7])) were 10%, 0% and 20%, respectively.
In the case of `Cn1nnnc1-c1cc[n+](CS(=O)(=O)[O-])cc1` [Compound A57], the pest or weed control at 500 g/ha is 80% in test [1] (setting [7]); 100% in [2] (setting [7]); 0% in test [3] (setting [7]); 60% in test [4] (setting [7]); 20% in the test with Eleusine indica (ELEIN) (setting [7]); 0% with Lolium perenne (LOLPE) (setting [7]). Further, the values for the pest or weed control at 500 g/ha (in the test with Setaria faberi (SETFA) (setting [7]); in test [5] (setting [7]); in test [6] (setting [7])) were 0%, 30% and 20%, respectively.
Turning to `O=S(=O)([O-])OCC[n+]1ccc(-c2nnco2)cc1` [Compound A64], the pest or weed control at 500 g/ha in test [1] (setting [7]) was 30%; in test [2] (setting [7]), 50%; in test [3] (setting [7]), 20%; in test [4] (setting [7]), 50%; in the test on Eleusine indica (ELEIN) (setting [7]), 20%; in the test with Lolium perenne (LOLPE) (setting [7]) it was 10%. Moreover, the pest or weed control at 500 g/ha came to 20% in the test with Setaria faberi (SETFA) (setting [7]), 30% in test [5] (setting [7]) and 30% in test [6] (setting [7]).
For the compound `O=S(=O)([O-])OCC[n+]1ccc(-c2csnn2)cc1` [Compound A65, 2-[4-(thiadiazol-4-yl)pyridin-1-ium-1-yl]ethyl sulfate], the pest or weed control at 500 g/ha turned out to be 20% in test [1] (setting [7]); 30% in test [2] (setting [7]); 20% in test [3] (setting [7]); 20% in test [4] (setting [7]); 20% in the test on Eleusine indica (ELEIN) (setting [7]); 10% in the test on Lolium perenne (LOLPE) (setting [7]). Further, the pest or weed control at 500 g/ha in the test with Setaria faberi (SETFA) (setting [7]) is 10%; in test [5] (setting [7]), 30%; in test [6] (setting [7]) it was 20%.
As for `OCC[n+]1ccc(-c2nnc(-c3ccccc3)o2)cc1` [Compound A69, 2-[4-(5-phenyl-1,3,4-oxadiazol-2-yl)pyridin-1-ium-1-yl]ethanol 2,2,2-trifluoroacetate], the pest or weed control at 500 g/ha turned out to be 30% in test [1] (setting [7]); 20% in test [2] (setting [7]); 20% in [3] (setting [7]); 20% in test [4] (setting [7]); 30% with Eleusine indica (ELEIN) (setting [7]); 10% with Lolium perenne (LOLPE) (setting [7]). Besides, the pest or weed control at 500 g/ha with Setaria faberi (SETFA) (setting [7]) is 10%; in test [5] (setting [7]), 10%; in [6] (setting [7]) it was 20%.
In the case of `Cc1nc(-c2cc[n+](CCCS(=O)(=O)[O-])cc2)no1` [Compound A71], the pest or weed control at 500 g/ha in test [1] (setting [7]) came out at 50%; in test [2] (setting [7]), 20%; in [3] (setting [7]), 30%; in [4] (setting [7]) it was 20%; with Eleusine indica (ELEIN) (setting [7]), 20%; in the test with Lolium perenne (LOLPE) (setting [7]), 0%. The figures for the pest or weed control at 500 g/ha (in the test on Setaria faberi (SETFA) (setting [7]); in test [5] (setting [7]); in test [6] (setting [7])) were 10%, 30% and 40%, respectively.
`Cn1nccc1-c1cc[n+](CCOS(=O)(=O)[O-])cc1` [Compound A74]: the pest or weed control at 500 g/ha in test [1] (setting [7]) was found to be 40%; in test [2] (setting [7]) it was 10%; in [3] (setting [7]), 10%; in [4] (setting [7]) it was 20%; in the test with Eleusine indica (ELEIN) (setting [7]), 20%; in the test with Lolium perenne (LOLPE) (setting [7]) it was 10%. Besides, the pest or weed control at 500 g/ha in the test on Setaria faberi (SETFA) (setting [7]) amounted to 20%; in test [5] (setting [7]) it was 30%; in test [6] (setting [7]) it was 20%.

For the origin of these results see patent US20220104493A1, “HERBICIDAL COMPOUNDS” (SYNGENTA CROP PROTECTION AG, priority 2019, published 2022).
